In patent US11503827B2, “Stabilized chemical composition” (priority 2010, dated 2022):

Experiment: Dissolution of active ingredient in liquid epoxy resin mixture, by inspection
Type: physicochemical
Details: 1.0-1.5 g AI in 8 g 635 Thin Epoxy Resin and 4 g 556 2:1 Epoxy Hardener
Experimental: Nine different individual resin mixtures were prepared by mixing together 8 g 635 Thin Epoxy Resin, 4 g 556 2:1 Epoxy Hardener and between 1.0 and 1.5 g of the following finely milled active ingredients: atrazine, azoxystrobin, bicylopyrone, cyproconazole, difenoconazole, mesotrione, prodiamine, thiabendazole, thiamethoxam. […] The samples were placed on a platform shaker overnight at room temperature and then examined by light microscopy. In every case the presence of a dispersion of epoxy resin particles of diameter approximately 100 microns was confirmed. Crystals of the active ingredient were visible inside the epoxy particles under polarized light, except that in the cases of bicyclopyrone and mesotrione individual crystals were not visible as these active ingredients had dissolved in the epoxy resin—in these cases the entire epoxy resin particle was slightly birefringent indicating the presence of crystal domains within the matrix.

| SMILES | dissolution of active ingredient in the liquid resin |
| --- | --- |
| COCCOCc1nc(C(F)(F)F)ccc1C(=O)C1=C(O)C2CCC(C2)C1=O (stereo not drawn) [bicylopyrone] | fully dissolved |
| CC(C1CC1)C(O)(Cn1cncn1)c1ccc(Cl)cc1 (stereo not drawn) [cyproconazole] | most of the cyproconazole was dissolved |
| CS(=O)(=O)c1ccc(C(=O)C2C(=O)CCCC2=O)c([N+](=O)[O-])c1 [mesotrione] | fully dissolved |
